Measured values: patent US5008266A, “4(3H)-quinazolinone derivatives and pharmaceutical compositions” (Nisshin Flour Milling Co., Ltd., priority 1987, dated 1991)
Read-outs that look alike come from different tables or passages of the source.

Legend:
[1] = background, cited from earlier work
[2] = test system: indomethacin induced ulcer; assay: antiulcer activity: suppression of indomethacin induced ulcer in mice; assay type: in vivo, ddY series male mice; details: for inhibition in vivo at 100 mg/kg: Mus musculus, po, read-out: Suppression rate of indomethacin induced ulcer
Protocol: The antiulcer activity of the compounds of this invention was determined by the following method. Four-week-old ddY series male mice were used as the test animals after they were fasted for 24 hours. Each test compound suspended in a 1% gum arabic solution was administerd to the stomach of each mouse at a dose of 100 mg/kg, and then, after 30 minutes, 20 mg/kg of indomethacin was administered orally. Four hours after the administration of indomethacin, the stomach of mouse was extirpated and the length of ulcers was measured. Then, the ulcer index was determined by the total sum of the scores as calculated in Table 1. | TABLE 1 |Length of ulcer | 0.5 mm< 1 mm< 2 mm< 3 mm< |Score 0.5 1 2 3 The mean ulcer index of each group was calculated and the suppression rate against the control group in terms of difference in the mean ulcer index was determined.

[3] = acute toxicity, LD50 (P.O.); details: in vivo, po
reversion test = assay type: cell-based
[4] = 100 mg/kg, p.o., ddY male mice, indomethacin 20 mg/kg orally 30 minutes later, ulcers measured 4 hours after indomethacin

| Compound | inhibition in vivo at 100 mg/kg [2, 4] | further results |
| --- | --- | --- |
| CN/C(=N/CCSCc1nc[nH]c1C)NC#N [Cimetidine] | – | side effects ([1]; known): gynecomatism; recurrence of ulcer after suspension of administration ([1]; reported): numbers of cases are reported about recurrence of ulcer; inhibition in vivo at 100 mg/kg ([2]; 4 h): 40% |
| O=c1c2ccccc2nc(SCc2cccnc2)n1-c1ccccc1 [3-Phenyl-2-(3-pyridylmethylthio)-4(3H)-quinazolinone] | – | Suppression rate of indomethacin induced ulcer [2, 4]: 63 |
| COc1ccc(-n2c(SCc3nccc(OC)c3C)nc3ccc(C)cc3c2=O)cc1 [2-[(4-Methoxy-3-methylpyridin-2-yl)methylthio]-3-(4-methoxyphenyl)-6-methyl-4(3H)-quinazolinone] | 49% | – |
| Cc1ccc2nc(SCc3ccccn3)n(-c3ccccc3)c(=O)c2c1 [6-Methyl-3-phenyl-2-(2-pyridylmethylthio)-4(3H)-quinazolinone] | 38% | – |
| COc1cc(CSc2nc3ccc(C)cc3c(=O)n2-c2ccccc2)ncc1C [2[(4-Methoxy-5-methylpyridin-2-yl)methylthio]-6-methyl-3-phenyl-4(3H)-quinazolinone] | 44% | – |
| O=c1c2ccccc2nc(SCc2nc3ccccc3[nH]2)n1-c1ccccc1 [2-(2-Benzimidazolylmethylthio)-3-phenyl-4(3H)-quinazolinone] | 81% | – |
| O=c1c2ccccc2nc(SCc2ccccn2)n1CCc1ccccc1 [3-Phenethyl-2-(2-pyridylmethylthio)-4(3H)-quinazolinone] | 60% | – |
| CCN(CC)CCSc1nc2ccccc2c(=O)n1-c1ccccc1 [2-(2-Diethylaminoethylthio)-3-phenyl-4(3H)-quinazolinone] | 45% | – |
| CCn1c(SCc2ccccn2)nc2ccccc2c1=O [3-Ethyl-2-(2-pyridylmethylthio)-4(3H)-quinazolinone] | 96% | LD50 [3]: > 3000 mg/kg; reversion test (reversion test): negative |
